Results: patent US20090068150A1, “LACTIC ACID BACTERIA CULTURE OF MUNG BEAN AND THE PREPARATION METHOD OF THE SAME, AND THE COSMETIC COMPOSITION COMPRISING THE SAME” (Doosan Corporation, priority 2005, published 2009)

Experiments:
CD-1 mouse = assay: Inflammation (skin stimulus) alleviating effect on TPA-induced ear inflammation; type: in vivo
Protocol: In order to examine the inflammation (skin stimulus) alleviating effect of the lactic acid bacteria culture of mung bean containing the mung bean extract and GABA, which was obtained in the embodiment 2, a following test was conducted according to a method used by Sheu et al. (The Journal of Investigative Dermatology, 118, pp 94-101, 2002).
First, CD-1 mouse (male & female, 6-8 weeks, Charles River, USA) were used as test objects, and as stimulus material, 10 μl of TPA (12-O-tetradecanonylphorbol-13-acetate) 0.03% (wt/vol. in acetone) solution was applied to inside and outside of both ears of the test animals. Due to the treatment material, the ear was thickened and there occurred an inflammatory reaction. After that, as a positive control group, clofibrate (1 mM) and Wy14643 (1 mM) which are agonists of PPAR CL (Sheu et al., The Journal of Investigative Dermatology, 118, pp 94-101, 2002), and as a test material, the lactic acid bacteria culture of mung bean in the embodiment 2 were applied to the both surfaces of the ears in an amount of […], respectively, at 45 minutes and 4 hours after the inflammation induction.

skin = details: applied to the skin; cited from earlier work

Cc1cccc(Nc2cc(Cl)nc(SCC(=O)O)n2)c1C [WY14643]
ear swelling vs control group treated with TPA only (FIG. 4) (CD-1 mouse; TPA + WY14643 (1 mM), applied 45 minutes and 4 hours after induction): the swelling was decreased
inflammation alleviation, H&E dyed tissue slide (FIG. 5) (CD-1 mouse; positive controls 1 mM (group C Wy14643, group B clofibrate), vs TPA only): the inflammation was also alleviated
skin inflammation due to stimulus materials after application to the skin (skin): the inflammation due to stimulus materials is decreased
